Data published in US20240261249A1, “NOVEL SQUARAMIDE DERIVATIVE AND USE THEREOF” (PUSAN NATIONAL UNIVERSITY INDUSTRY-UNIVERSITY COOPERATION …, priority 2021, published 2024).

System: Phospho-eIF2α (Ser51)
Assay: Phospho-eIF2α (Ser51) Sandwich ELISA in K562 cells
Format: cell-based
Settings: Homo sapiens, K562, 6 h, serum-free RPMI, 10 μM compound, control = 1, read-out: eIF2α phosphorylation, absorbance standardized to control (DMSO-treated) set to 1, at 10 μM
Procedure: Pathscan Phospho-eIF2α (Ser51) Sandwich ELISA Kit #7286 from Cell signaling was used. The K562 cell line was cultured in serum-free RPMI medium at 37° C. in the presence of 5% CO2. Cells were treated with test compounds at a concentration of 10 μM. Six hours after compound treatment, the cells were lysed with a lysis buffer included in the kit to obtain 50 μg of protein by quantification. Afterwards, ELISA assay was performed according to the manufacturer's protocol to obtain absorbance. The absorbance for each obtained compound was standardized to a value of which the control (DMSO-treated) is set to 1.

Structure (SMILES)	activity at 10 µM
CS(=O)(=O)c1ccc(O[C@H]2CC[C@H](Nc3c(Nc4cccc(C(F)(F)F)c4)c(=O)c3=O)CC2)cc1 [Compound 26, 3-(((1,4-trans)-4-(4-(Methylsulfonyl)phenoxy)cyclohexyl)amino)-4-((3-(trifluoromethyl)phenyl)amino)cyclobut-3-ene-1,2-dione]	133%
O=c1c(Nc2ccccc2C(F)(F)F)c(N[C@H]2CC[C@H](Oc3ccc([N+](=O)[O-])cc3)CC2)c1=O [Compound 72, 3-(((1,4-trans)-4-(4-Nitrophenoxy)cyclohexyl)amino)-4-((2-(trifluoromethyl)phenyl)amino)cyclobut-3-ene-1,2-dione]	149%
O=c1c(Nc2ccccc2)c(N[C@H]2CC[C@H](Oc3ccc([N+](=O)[O-])cc3)CC2)c1=O [Compound 10, 3-(((1,4-trans)-4-(4-Nitrophenoxy)cyclohexyl)amino)-4-(phenylamino)cyclobut-3-ene-1,2-dione]	84%
N#Cc1ccc(O[C@H]2CC[C@H](Nc3c(Nc4cccc(F)c4)c(=O)c3=O)CC2)cc1 [Compound 14, 4-(((1,4-trans)-4-((2-((3-Fluorophenyl)amino)-3,4-dioxocyclobut-1-en-1-yl)amino)cyclohexyl)oxy)benzonitrile]	90%
CC(C)(C)c1ccc(Nc2c(N[C@H]3CC[C@H](Oc4ccc([N+](=O)[O-])cc4)CC3)c(=O)c2=O)cc1 [Compound 52, 3-((4-(tert-Butyl)phenyl)amino)-4-(((1,4-trans)-4-(4-nitrophenoxy)cyclohexyl)amino)cyclobut-3-ene-1,2-dione]	77%
O=c1c(Nc2ccc(C(F)(F)F)cc2)c(N[C@H]2CC[C@H](Oc3ccc([N+](=O)[O-])cc3)CC2)c1=O [Compound 48, 3-(((1,4-trans)-4-(4-Nitrophenoxy)cyclohexyl)amino)-4-((4-(trifluoromethyl)phenyl)amino)cyclobut-3-ene-1,2-dione]	91%
O=c1c(Nc2cccc(Cl)c2)c(N[C@H]2CC[C@H](Oc3ccc(C(F)(F)F)cc3)CC2)c1=O [Compound 18, 3-((3-Chlorophenyl)amino)-4-(((1,4-trans)-4-(4-(trifluoromethyl)phenoxy)cyclohexyl)amino)cyclobut-3-ene-1,2-dione]	71%
CC(C)(C)c1ccccc1Nc1c(N[C@H]2CC[C@H](Oc3ccc(C#N)cc3)CC2)c(=O)c1=O [Compound 75, 4-(((1,4-trans)-4-((2-((2-(tert-Butyl)phenyl)amino)-3,4-dioxocyclobut-1-en-1-yl)amino)cyclohexyl)oxy)benzonitrile]	162%
COc1ccccc1Nc1c(N[C@H]2CC[C@H](Oc3ccc(S(N)(=O)=O)cc3)CC2)c(=O)c1=O [Compound 82, 4-(((1,4-trans)-4-((2-((2-Methoxyphenyl)amino)-3,4-dioxocyclobut-1-en-1-yl)amino)cyclohexyl)oxy)benzenesulfonamide]	136%
NS(=O)(=O)c1ccc(O[C@H]2CC[C@H](Nc3c(Nc4ccccc4)c(=O)c3=O)CC2)cc1 [Compound 12, 4-(((1,4-trans)-4-((3,4-Dioxo-2-(phenylamino)cyclobut-1-en-1-yl)amino)cyclohexyl)oxy)benzenesulfonamide]	81%
COc1ccccc1Nc1c(N[C@H]2CC[C@H](Oc3ccc(C#N)cc3)CC2)c(=O)c1=O [Compound 79, 4-(((1,4-trans)-4-((2-((2-Methoxyphenyl)amino)-3,4-dioxocyclobut-1-en-1-yl)amino)cyclohexyl)oxy)benzonitrile]	238%
CS(=O)(=O)c1ccc(O[C@H]2CC[C@H](Nc3c(Nc4cccc(F)c4)c(=O)c3=O)CC2)cc1 [Compound 16, 3-((3-Fluorophenyl)amino)-4-(((1,4-trans)-4-(4-(methylsulfonyl)phenoxy)cyclohexyl)amino)cyclobut-3-ene-1,2-dione]	84%
CC(C)(C)c1ccc(Nc2c(N[C@H]3CC[C@H](Oc4ccc(C#N)cc4)CC3)c(=O)c2=O)cc1 [Compound 51, 4-(((1,4-trans)-4-((2-((4-(tert-Butyl)phenyl)amino)-3,4-dioxocyclobut-1-en-1-yl)amino)cyclohexyl)oxy)benzonitrile]	182%
O=c1c(Nc2ccccc2Cl)c(N[C@H]2CC[C@H](Oc3ccc([N+](=O)[O-])cc3)CC2)c1=O [Compound 68, 3-((2-Chlorophenyl)amino)-4-(((1,4-trans)-4-(4-nitrophenoxy)cyclohexyl)amino)cyclobut-3-ene-1,2-dione]	209%
O=c1c(Nc2ccccc2F)c(N[C@H]2CC[C@H](Oc3ccc(C(F)(F)F)cc3)CC2)c1=O [Compound 62, 3-((2-Fluorophenyl)amino)-4-(((1,4-trans)-4-(4-(trifluoromethyl)phenoxy)cyclohexyl)amino)cyclobut-3-ene-1,2-dione]	182%
CS(=O)(=O)c1ccc(O[C@H]2CC[C@H](Nc3c(Nc4ccc(Cl)cc4)c(=O)c3=O)CC2)cc1 [Compound 45, 3-((4-Chlorophenyl)amino)-4-(((1,4-trans)-4-(4-(methylsulfonyl)phenoxy)cyclohexyl)amino)cyclobut-3-ene-1,2-dione]	79%
CS(=O)(=O)c1ccc(O[C@H]2CC[C@H](Nc3c(Nc4cccc(Cl)c4)c(=O)c3=O)CC2)cc1 [Compound 21, 3-((3-Chlorophenyl)amino)-4-(((1,4-trans)-4-(4-(methylsulfonyl)phenoxy)cyclohexyl)amino)cyclobut-3-ene-1,2-dione]	77%
CC(C)(C)c1ccc(Nc2c(N[C@H]3CC[C@H](Oc4ccc(S(C)(=O)=O)cc4)CC3)c(=O)c2=O)cc1 [Compound 53, 3-((4-(tert-Butyl)phenyl)amino)-4-(((1,4-trans)-4-(4-(methylsulfonyl)phenoxy)cyclohexyl)amino)cyclobut-3-ene-1,2-dione]	133%
O=c1c(Nc2ccccc2F)c(N[C@H]2CC[C@H](Oc3ccc([N+](=O)[O-])cc3)CC2)c1=O [Compound 64, 3-((2-Fluorophenyl)amino)-4-(((1,4-trans)-4-(4-nitrophenoxy)cyclohexyl)amino)cyclobut-3-ene-1,2-dione]	133%
COc1ccc(Nc2c(N[C@H]3CC[C@H](Oc4ccc(C(F)(F)F)cc4)CC3)c(=O)c2=O)cc1 [Compound 54, 3-((4-Methoxyphenyl)amino)-4-(((1,4-trans)-4-(4-(trifluoromethyl)phenoxy)cyclohexyl)amino)cyclobut-3-ene-1,2-dione]	182%
O=c1c(Nc2ccc(Cl)cc2)c(N[C@H]2CC[C@H](Oc3ccc(C(F)(F)F)cc3)CC2)c1=O [Compound 42, 3-((4-Chlorophenyl)amino)-4-(((1,4-trans)-4-(4-(trifluoromethyl)phenoxy)cyclohexyl)amino)cyclobut-3-ene-1,2-dione]	93%
CC(C)(C)c1ccc(Nc2c(N[C@H]3CC[C@H](Oc4ccc(C(F)(F)F)cc4)CC3)c(=O)c2=O)cc1 [Compound 50, 3-((4-(tert-Butyl)phenyl)amino)-4-(((1,4-trans)-4-(4-(trifluoromethyl)phenoxy)cyclohexyl)amino)cyclobut-3-ene-1,2-dione]	204%
COC(=O)c1ccc(Nc2c(N[C@H]3CC[C@H](Oc4ccc([N+](=O)[O-])cc4)CC3)c(=O)c2=O)cc1 [Compound 60, Methyl 4-((2-(((1,4-trans)-4-(4-nitrophenoxy)cyclohexyl)amino)-3,4-dioxocyclobut-1-en-1-yl)amino)benzoate]	97%
N#Cc1ccc(O[C@H]2CC[C@H](Nc3c(Nc4ccccc4Cl)c(=O)c3=O)CC2)cc1 [Compound 67, 4-(((1,4-trans)-4-((2-((2-Chlorophenyl)amino)-3,4-dioxocyclobut-1-en-1-yl)amino)cyclohexyl)oxy)benzonitrile]	199%
N#Cc1ccc(O[C@H]2CC[C@H](Nc3c(Nc4ccc(F)cc4)c(=O)c3=O)CC2)cc1 [Compound 39, 4-(((1,4-trans)-4-((2-((4-Fluorophenyl)amino)-3,4-dioxocyclobut-1-en-1-yl)amino)cyclohexyl)oxy)benzonitrile]	83%
COC(=O)c1ccc(Nc2c(N[C@H]3CC[C@H](Oc4ccc(S(C)(=O)=O)cc4)CC3)c(=O)c2=O)cc1 [Compound 61, Methyl 4-((2-(((1,4-trans)-4-(4-(methylsulfonyl)phenoxy)cyclohexyl)amino)-3,4-dioxocyclobut-1-en-1-yl)amino)benzoate]	148%
N#Cc1ccc(O[C@H]2CC[C@H](Nc3c(Nc4ccccc4F)c(=O)c3=O)CC2)cc1 [Compound 63, 4-(((1,4-trans)-4-((2-((2-Fluorophenyl)amino)-3,4-dioxocyclobut-1-en-1-yl)amino)cyclohexyl)oxy)benzonitrile]	75%

Same assay, conditions: serum-free RPMI, 10 μM compound, 6 hours, control = 1

Structure (SMILES)	eIF2α phosphorylation, absorbance standardized to control (DMSO-treated) set to 1, at 10 μM
CS(=O)(=O)c1ccc(O[C@H]2CC[C@H](Nc3c(Nc4ccccc4F)c(=O)c3=O)CC2)cc1 [Compound 65, 3-((2-Fluorophenyl)amino)-4-(((1,4-trans)-4-(4-(methylsulfonyl)phenoxy)cyclohexyl)amino)cyclobut-3-ene-1,2-dione]	1.07

System: K562 cell line
Assay: CCK-8 anti-proliferative assay, K562
Format: cell-based
Settings: Homo sapiens, 72 h; K562, culture for 3 days, CCK-8, Table 2; read-out: IC50
Procedure: CCK-8 assay (cell counting kit-8 assay, Dojindo, Kumamoto, Japan) was performed. The K562 cell line was cultured in RPMI medium supplemented with 10% FBS and 1% ABAM at 37° C. in the presence of 5% CO2. Cells were treated with test compounds at concentrations of 0 μM, 1.25 μM, 2.5 μM, 5 μM, 10 μM, and 20 μM, respectively. After culture for 3 days, 10 μL of CCK-8 solution was treated and cultured for 4 hours. Subsequently, the absorbance was measured at 450 nm to obtain the IC50 value of each compound.
The experimental values for the K562 cell line are identical to biological Example 2.

IC50	Structure (SMILES)
> 20 µM	CS(=O)(=O)c1ccc(O[C@H]2CC[C@H](Nc3c(Nc4cccc(C(F)(F)F)c4)c(=O)c3=O)CC2)cc1 [Compound 26, 3-(((1,4-trans)-4-(4-(Methylsulfonyl)phenoxy)cyclohexyl)amino)-4-((3-(trifluoromethyl)phenyl)amino)cyclobut-3-ene-1,2-dione]
> 20 µM	O=c1c(Nc2ccccc2C(F)(F)F)c(N[C@H]2CC[C@H](Oc3ccc([N+](=O)[O-])cc3)CC2)c1=O [Compound 72, 3-(((1,4-trans)-4-(4-Nitrophenoxy)cyclohexyl)amino)-4-((2-(trifluoromethyl)phenyl)amino)cyclobut-3-ene-1,2-dione]
